According to PubChem BioAssay AID248 (DTP/NCI, 2004):
Where “and” joins values, the source holds several entries; their conditions need not be identical. Identical values can stand only once. Inconclusive results and toxic doses are left out. Square brackets hold non-standard residues; d marks the D form. Peptide text beside a SMILES is read from it. * marks the point of attachment. ξ: configuration not given here. Cbz = O=C(OCc1ccccc1)*; ξP = O=C(O)C1CCCN1

System: L1210 leukemia ip in BDF1 mice, survival T/C
Test: NCI In Vivo Anticancer Drug Screen. Data for tumor model L1210 Leukemia (intraperitoneal) in B6D2F1 (BDF1) mice
Conditions: endpoint: mean survival time, higher = longer survival
Method in brief: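 Value reflects the ratio of survival in compound-treated mice to survival in vehicle-treated controls, with both groups carrying the same transplanted tumor.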

[1] = dose: 100.0 mg/kg/injection, schedule: Q04DX002 (ip), vehicle: Klucel (hydroxypropylcellulose) (HPC)
[2] = dose: 200.0 mg/kg/injection, schedule: Q04DX002 (ip), vehicle: Klucel (hydroxypropylcellulose) (HPC)
[3] = dose: 400.0 mg/kg/injection, schedule: Q04DX002 (ip), vehicle: Klucel (hydroxypropylcellulose) (HPC)
[4] = dose: 100.0 mg/kg/injection, schedule: Q04DX003 (ip), vehicle: saline with Tween-80
[5] = dose: 200.0 mg/kg/injection, schedule: Q04DX003 (ip), vehicle: saline with Tween-80
[6] = dose: 400.0 mg/kg/injection, schedule: Q04DX003 (ip), vehicle: saline with Tween-80
[7] = dose: 100.0 mg/kg/injection, schedule: Q04DX003 (ip), vehicle: saline

SMILES: CCCC1(CC)C(=O)N=C(N)NC1=O (stereo not given)
- T/C (dose: 25.0 mg/kg/injection, schedule: Q01DX001 (ip), vehicle: Klucel (hydroxypropylcellulose) (HPC)): 95 % of control
- T/C (dose: 50.0 mg/kg/injection, schedule: Q01DX001 (ip), vehicle: Klucel (hydroxypropylcellulose) (HPC)): 104 % of control

SMILES: Cc1cc(Cl)c(C)cc1Cl
- T/C (dose: 100.0 mg/kg/injection, schedule: Q01DX009 (ip), vehicle: saline sonified): 107 % of control
- T/C (dose: 100.0 mg/kg/injection, schedule: Q04DX003 (ip), vehicle: saline sonified): 100 % of control
- T/C (dose: 200.0 mg/kg/injection, schedule: Q01DX009 (ip), vehicle: saline sonified): 110 % of control
- T/C (dose: 200.0 mg/kg/injection, schedule: Q04DX003 (ip), vehicle: saline sonified): 101 % of control
- T/C (dose: 400.0 mg/kg/injection, schedule: Q01DX009 (ip), vehicle: saline sonified): 102 % of control
- T/C (dose: 400.0 mg/kg/injection, schedule: Q04DX003 (ip), vehicle: saline sonified): 94 % of control

SMILES: CCOC(=O)C1C2OC(=O)C(C(=O)C2CN(CCCl)CCCl)C1C1CC=C(CC2=CCC(C3C4C(=O)OC(C(CN(CCCl)CCCl)C4=O)C3C(=O)OCC)CC2)CC1 (stereo not given)
- T/C (dose: 6.25 mg/kg/injection, schedule: Q01DX009 (ip), vehicle: Klucel (hydroxypropylcellulose) (HPC)): 108 % of control
- T/C (dose: 12.5 mg/kg/injection, schedule: Q01DX009 (ip), vehicle: Klucel (hydroxypropylcellulose) (HPC)): 116 % of control
- T/C (dose: 25.0 mg/kg/injection, schedule: Q01DX009 (ip), vehicle: Klucel (hydroxypropylcellulose) (HPC)): 158 % of control
- T/C (dose: 33.25 mg/kg/injection, schedule: Q04DX003 (ip), vehicle: Klucel (hydroxypropylcellulose) (HPC)): 109 % of control
- T/C (dose: 50.0 mg/kg/injection, schedule: Q01DX009 (ip), vehicle: Klucel (hydroxypropylcellulose) (HPC)): 114 % of control and 120 % of control
- T/C (dose: 66.5 mg/kg/injection, schedule: Q04DX003 (ip), vehicle: Klucel (hydroxypropylcellulose) (HPC)): 109 % of control
- T/C (dose: 100.0 mg/kg/injection, schedule: Q04DX003 (ip), vehicle: Klucel (hydroxypropylcellulose) (HPC)): 114 % of control
- T/C (dose: 133.0 mg/kg/injection, schedule: Q04DX003 (ip), vehicle: Klucel (hydroxypropylcellulose) (HPC)): 109 % of control
- T/C (dose: 200.0 mg/kg/injection, schedule: Q04DX003 (ip), vehicle: Klucel (hydroxypropylcellulose) (HPC)): 120 % of control
- T/C (dose: 266.0 mg/kg/injection, schedule: Q04DX003 (ip), vehicle: Klucel (hydroxypropylcellulose) (HPC)): 117 % of control

SMILES: O=C(O)c1ccc([N+](=O)[O-])cc1Sc1ccsc1
- T/C (dose: 100.0 mg/kg/injection, schedule: Q01DX001 (ip), vehicle: saline): 98 % of control
- T/C (dose: 200.0 mg/kg/injection, schedule: Q01DX001 (ip), vehicle: saline): 98 % of control
- T/C (dose: 400.0 mg/kg/injection, schedule: Q01DX001 (ip), vehicle: saline): 98 % of control

SMILES: COc1ccc(OCCOC(C)=O)cc1
- T/C [1]: 107 % of control
- T/C [2]: 100 % of control
- T/C [3]: 103 % of control

SMILES: CC(C)CCCC(C)C1CCC2C3CC=C4C=C(OC(=O)c5ccccc5)CCC4(C)C3CCC12C (stereo not given)
- T/C (dose: 100.0 mg/kg/injection, schedule: Q01DX009 (ip), vehicle: saline with Tween-80): 90 % of control
- T/C [4]: 97 % of control
- T/C (dose: 200.0 mg/kg/injection, schedule: Q01DX009 (ip), vehicle: saline with Tween-80): 87 % of control
- T/C [5]: 95 % of control
- T/C (dose: 400.0 mg/kg/injection, schedule: Q01DX009 (ip), vehicle: saline with Tween-80): 95 % of control
- T/C [6]: 87 % of control

SMILES: CC#CCC(N)C(=O)O (stereo not given)
- T/C (dose: 75.0 mg/kg/injection, schedule: Q01DX001 (ip), vehicle: carboxymethylcellulose (CMC)): 109 % of control
- T/C (dose: 80.0 mg/kg/injection, schedule: Q01DX009 (ip), vehicle: saline): 105 % of control
- T/C (dose: 150.0 mg/kg/injection, schedule: Q01DX001 (ip), vehicle: carboxymethylcellulose (CMC)): 103 % of control
- T/C (dose: 160.0 mg/kg/injection, schedule: Q01DX009 (ip), vehicle: saline): 106 % of control
- T/C (dose: 300.0 mg/kg/injection, schedule: Q01DX001 (ip), vehicle: carboxymethylcellulose (CMC)): 118 % of control
- T/C (dose: 320.0 mg/kg/injection, schedule: Q01DX009 (ip), vehicle: saline): 94 % of control

SMILES: Cn1c(N)c(N=Cc2ccncc2)c(=O)n(C)c1=O
- T/C (dose: 50.0 mg/kg/injection, schedule: Q01DX001 (ip), vehicle: other): 103 % of control
- T/C (dose: 100.0 mg/kg/injection, schedule: Q01DX001 (ip), vehicle: other): 92 % of control
- T/C (dose: 200.0 mg/kg/injection, schedule: Q01DX001 (ip), vehicle: other): 94 % of control
- T/C (dose: 400.0 mg/kg/injection, schedule: Q01DX001 (ip), vehicle: other): 97 % of control

SMILES: COc1ccc(-c2cc(C(=O)N/N=C/c3ccc([N+](=O)[O-])cc3)c3ccc(C)cc3n2)cc1OC
- T/C [5]: 86 % of control
- T/C [6]: 94 % of control

SMILES: COc1cccc2c1CCC1=C2CCC2CC(=O)CCC12C (stereo not given)
- T/C (dose: 100.0 mg/kg/injection, schedule: Q01DX001 (sc), vehicle: steriod suspending solution): 98 % of control
- T/C (dose: 200.0 mg/kg/injection, schedule: Q01DX001 (sc), vehicle: steriod suspending solution): 100 % of control
- T/C (dose: 400.0 mg/kg/injection, schedule: Q01DX001 (sc), vehicle: steriod suspending solution): 100 % of control

SMILES: COCC1OC(Nc2ccccc2)C(OC)C(OC)C1OC (stereo not given)
- T/C [4]: 89 % of control
- T/C [5]: 94 % of control
- T/C [6]: 89 % of control

SMILES: c1ccc(-c2ccc(-c3cnc(-c4ccccc4)[nH]3)cc2)cc1
- T/C (dose: 100.0 mg/kg/injection, schedule: Q01DX001 (ip), vehicle: saline with Tween-80): 95 % of control
- T/C (dose: 200.0 mg/kg/injection, schedule: Q01DX001 (ip), vehicle: saline with Tween-80): 92 % of control
- T/C (dose: 400.0 mg/kg/injection, schedule: Q01DX001 (ip), vehicle: saline with Tween-80): 92 % of control

SMILES: COc1ccc(OC)c2[nH]c(-c3ccc(Cl)cc3)cc12
- T/C [1]: 99 % of control
- T/C [2]: 102 % of control
- T/C [3]: 89 % of control

SMILES: NC(N)=N/N=C/C(F)(F)F
- T/C (dose: 15.0 mg/kg/injection, schedule: Q01DX Z (ip), vehicle: methylcellulose (MC)): 105 % of control
- T/C (dose: 30.0 mg/kg/injection, schedule: Q01DX Z (ip), vehicle: methylcellulose (MC)): 102 % of control
- T/C (dose: 60.0 mg/kg/injection, schedule: Q01DX Z (ip), vehicle: methylcellulose (MC)): 112 % of control
- T/C (dose: 60.0 mg/kg/injection, schedule: Q01DX Z (oral), vehicle: methylcellulose (MC)): 92 % of control
- T/C (dose: 120.0 mg/kg/injection, schedule: Q01DX Z (ip), vehicle: methylcellulose (MC)): 97 % of control
- T/C (dose: 120.0 mg/kg/injection, schedule: Q01DX Z (oral), vehicle: methylcellulose (MC)): 93 % of control
- T/C (dose: 240.0 mg/kg/injection, schedule: Q01DX Z (ip), vehicle: methylcellulose (MC)): 88 % of control
- T/C (dose: 240.0 mg/kg/injection, schedule: Q01DX Z (oral), vehicle: methylcellulose (MC)): 102 % of control
- T/C (dose: 420.0 mg/kg/injection, schedule: Q01DX Z (ip), vehicle: methylcellulose (MC)): 88 % of control
- T/C (dose: 480.0 mg/kg/injection, schedule: Q01DX Z (oral), vehicle: methylcellulose (MC)): 95 % of control

SMILES: COC(=O)C1CCCN1C(=O)CNC(=O)OCc1ccccc1 (stereo not drawn) (Cbz-Gly-[ξP]-OMe)
- T/C [7]: 97 % of control
- T/C (dose: 200.0 mg/kg/injection, schedule: Q04DX003 (ip), vehicle: saline): 101 % of control
- T/C (dose: 400.0 mg/kg/injection, schedule: Q04DX003 (ip), vehicle: saline): 95 % of control

SMILES: CCN1CC(CCN2CCOCC2)C(c2ccccc2)(c2ccccc2)C1=O (stereo not given)
- T/C (dose: 6.25 mg/kg/injection, schedule: Q01DX009 (ip), vehicle: saline): 111 % of control
- T/C (dose: 12.5 mg/kg/injection, schedule: Q01DX009 (ip), vehicle: saline): 108 % of control
- T/C (dose: 25.0 mg/kg/injection, schedule: Q01DX009 (ip), vehicle: saline): 101 % of control
- T/C (dose: 25.0 mg/kg/injection, schedule: Q04DX003 (ip), vehicle: saline): 87 % of control
- T/C (dose: 50.0 mg/kg/injection, schedule: Q01DX009 (ip), vehicle: saline): 111 % of control
- T/C (dose: 50.0 mg/kg/injection, schedule: Q04DX003 (ip), vehicle: saline): 95 % of control
- T/C (dose: 100.0 mg/kg/injection, schedule: Q01DX009 (ip), vehicle: saline): 101 % of control
- T/C [7]: 92 % of control

SMILES: CCCCN(C)N=Nc1ccc(C(=N)N)cc1
- T/C (dose: 5.0 mg/kg/injection, schedule: Q01DX001 (ip), vehicle: carboxymethylcellulose (CMC)): 106 % of control
- T/C (dose: 10.0 mg/kg/injection, schedule: Q01DX001 (ip), vehicle: carboxymethylcellulose (CMC)): 100 % of control
- T/C (dose: 20.0 mg/kg/injection, schedule: Q01DX001 (ip), vehicle: carboxymethylcellulose (CMC)): 100 % of control
- T/C (dose: 40.0 mg/kg/injection, schedule: Q01DX001 (ip), vehicle: carboxymethylcellulose (CMC)): 95 % of control
- T/C (dose: 80.0 mg/kg/injection, schedule: Q01DX001 (ip), vehicle: carboxymethylcellulose (CMC)): 101 % of control
